Test results: US11007270B2, “Polymer-semaxanib moiety conjugates” (Nektar Therapeutics, priority 2010, dated 2021)
pIC50: −log10 of the molar value.

Legend:
[1] = biological target: RET (Homo sapiens, UniProt P07949); test: RET kinase inhibition, Caliper screening (fluorescent substrate phosphorylation, electrophoretic separation); settings: for RET Fold: fold of IC50 relative to sunitinib
[2] = biological target: VEGFR-2 (Homo sapiens, UniProt P35968); test: VEGFR-2 kinase inhibition, Caliper screening (fluorescent substrate phosphorylation, electrophoretic separation); settings: for VEGFR-2 Fold: fold of IC50 relative to sunitinib
[3] = biological target: c-Kit (Homo sapiens, UniProt P10721); test: c-Kit tyrosine kinase inhibition, Caliper screening (fluorescent substrate phosphorylation, electrophoretic separation); type: biochemical; settings: for pIC50: averages of replicate wells; for c-Kit Fold: fold of IC50 relative to sunitinib
[4] = concentration 1.0E−05 (unit not given)
[5] = concentration 1.0E−06 (unit not given)
[6] = concentration 1.0E−07 (unit not given)
[7] = concentration 1.0E−08 (unit not given)
[8] = concentration 1.0E−09 (unit not given)
[9] = concentration 1.0E−10 (unit not given)
[10] = concentration 3.0E−05 (unit not given)
[11] = concentration 3.0E−06 (unit not given)
[12] = concentration 3.0E−07 (unit not given)
[13] = concentration 3.0E−08 (unit not given)
[14] = concentration 3.0E−09 (unit not given)
[15] = concentration 3.0E−10 (unit not given)

c-Kit, sequence (P10721 26-976): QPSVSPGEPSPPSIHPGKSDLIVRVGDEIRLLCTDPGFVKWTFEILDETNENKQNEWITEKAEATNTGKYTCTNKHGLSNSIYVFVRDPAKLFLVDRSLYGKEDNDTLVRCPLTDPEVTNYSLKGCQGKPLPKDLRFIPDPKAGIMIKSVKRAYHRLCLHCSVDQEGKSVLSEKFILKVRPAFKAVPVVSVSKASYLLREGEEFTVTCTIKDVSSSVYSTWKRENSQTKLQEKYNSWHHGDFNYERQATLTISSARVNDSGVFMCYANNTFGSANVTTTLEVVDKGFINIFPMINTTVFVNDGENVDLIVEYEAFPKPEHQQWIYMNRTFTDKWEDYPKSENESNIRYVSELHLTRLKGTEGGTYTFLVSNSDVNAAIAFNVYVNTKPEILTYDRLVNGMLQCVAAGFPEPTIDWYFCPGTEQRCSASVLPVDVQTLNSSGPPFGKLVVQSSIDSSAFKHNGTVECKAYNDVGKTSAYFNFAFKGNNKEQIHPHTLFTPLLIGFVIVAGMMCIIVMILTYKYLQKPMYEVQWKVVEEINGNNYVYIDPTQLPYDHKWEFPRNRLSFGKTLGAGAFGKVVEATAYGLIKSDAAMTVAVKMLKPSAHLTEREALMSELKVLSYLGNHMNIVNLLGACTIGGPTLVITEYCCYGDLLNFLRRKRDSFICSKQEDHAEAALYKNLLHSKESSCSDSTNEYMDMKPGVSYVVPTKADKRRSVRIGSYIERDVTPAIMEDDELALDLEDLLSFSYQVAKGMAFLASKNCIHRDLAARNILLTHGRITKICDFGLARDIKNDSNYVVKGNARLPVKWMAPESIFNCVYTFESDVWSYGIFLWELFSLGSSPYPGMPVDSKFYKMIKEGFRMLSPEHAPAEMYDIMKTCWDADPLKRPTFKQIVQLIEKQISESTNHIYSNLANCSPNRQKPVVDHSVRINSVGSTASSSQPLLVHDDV
RET, sequence (P07949 29-1114, species assumed): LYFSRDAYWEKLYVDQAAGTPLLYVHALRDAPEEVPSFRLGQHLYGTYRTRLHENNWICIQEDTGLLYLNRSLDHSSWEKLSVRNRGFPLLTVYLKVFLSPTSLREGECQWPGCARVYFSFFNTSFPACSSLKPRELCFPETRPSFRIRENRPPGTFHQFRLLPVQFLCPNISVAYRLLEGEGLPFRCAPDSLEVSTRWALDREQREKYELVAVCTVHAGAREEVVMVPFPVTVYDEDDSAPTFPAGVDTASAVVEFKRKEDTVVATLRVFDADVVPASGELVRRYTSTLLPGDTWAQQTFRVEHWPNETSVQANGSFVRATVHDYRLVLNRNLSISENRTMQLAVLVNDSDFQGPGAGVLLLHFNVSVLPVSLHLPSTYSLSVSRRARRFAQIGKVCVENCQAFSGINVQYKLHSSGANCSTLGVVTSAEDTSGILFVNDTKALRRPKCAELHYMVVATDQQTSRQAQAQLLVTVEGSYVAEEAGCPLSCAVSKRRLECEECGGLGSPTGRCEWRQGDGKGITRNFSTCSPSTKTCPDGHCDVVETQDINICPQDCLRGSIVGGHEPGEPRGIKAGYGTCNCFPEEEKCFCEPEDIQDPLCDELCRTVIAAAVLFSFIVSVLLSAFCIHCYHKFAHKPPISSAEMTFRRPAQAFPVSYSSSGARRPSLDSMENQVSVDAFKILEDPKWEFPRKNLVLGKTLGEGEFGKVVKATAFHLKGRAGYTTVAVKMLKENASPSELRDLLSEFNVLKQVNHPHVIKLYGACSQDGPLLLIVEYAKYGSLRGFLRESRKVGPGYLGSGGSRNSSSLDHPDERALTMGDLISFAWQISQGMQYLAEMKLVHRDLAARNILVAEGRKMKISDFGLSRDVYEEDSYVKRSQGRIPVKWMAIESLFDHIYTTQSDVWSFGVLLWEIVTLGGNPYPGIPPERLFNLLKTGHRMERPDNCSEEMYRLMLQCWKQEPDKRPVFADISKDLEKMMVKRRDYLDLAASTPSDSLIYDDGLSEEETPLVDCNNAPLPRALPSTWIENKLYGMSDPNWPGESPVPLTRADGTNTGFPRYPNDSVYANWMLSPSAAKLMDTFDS
VEGFR-2, sequence (P35968 20-1356, species assumed): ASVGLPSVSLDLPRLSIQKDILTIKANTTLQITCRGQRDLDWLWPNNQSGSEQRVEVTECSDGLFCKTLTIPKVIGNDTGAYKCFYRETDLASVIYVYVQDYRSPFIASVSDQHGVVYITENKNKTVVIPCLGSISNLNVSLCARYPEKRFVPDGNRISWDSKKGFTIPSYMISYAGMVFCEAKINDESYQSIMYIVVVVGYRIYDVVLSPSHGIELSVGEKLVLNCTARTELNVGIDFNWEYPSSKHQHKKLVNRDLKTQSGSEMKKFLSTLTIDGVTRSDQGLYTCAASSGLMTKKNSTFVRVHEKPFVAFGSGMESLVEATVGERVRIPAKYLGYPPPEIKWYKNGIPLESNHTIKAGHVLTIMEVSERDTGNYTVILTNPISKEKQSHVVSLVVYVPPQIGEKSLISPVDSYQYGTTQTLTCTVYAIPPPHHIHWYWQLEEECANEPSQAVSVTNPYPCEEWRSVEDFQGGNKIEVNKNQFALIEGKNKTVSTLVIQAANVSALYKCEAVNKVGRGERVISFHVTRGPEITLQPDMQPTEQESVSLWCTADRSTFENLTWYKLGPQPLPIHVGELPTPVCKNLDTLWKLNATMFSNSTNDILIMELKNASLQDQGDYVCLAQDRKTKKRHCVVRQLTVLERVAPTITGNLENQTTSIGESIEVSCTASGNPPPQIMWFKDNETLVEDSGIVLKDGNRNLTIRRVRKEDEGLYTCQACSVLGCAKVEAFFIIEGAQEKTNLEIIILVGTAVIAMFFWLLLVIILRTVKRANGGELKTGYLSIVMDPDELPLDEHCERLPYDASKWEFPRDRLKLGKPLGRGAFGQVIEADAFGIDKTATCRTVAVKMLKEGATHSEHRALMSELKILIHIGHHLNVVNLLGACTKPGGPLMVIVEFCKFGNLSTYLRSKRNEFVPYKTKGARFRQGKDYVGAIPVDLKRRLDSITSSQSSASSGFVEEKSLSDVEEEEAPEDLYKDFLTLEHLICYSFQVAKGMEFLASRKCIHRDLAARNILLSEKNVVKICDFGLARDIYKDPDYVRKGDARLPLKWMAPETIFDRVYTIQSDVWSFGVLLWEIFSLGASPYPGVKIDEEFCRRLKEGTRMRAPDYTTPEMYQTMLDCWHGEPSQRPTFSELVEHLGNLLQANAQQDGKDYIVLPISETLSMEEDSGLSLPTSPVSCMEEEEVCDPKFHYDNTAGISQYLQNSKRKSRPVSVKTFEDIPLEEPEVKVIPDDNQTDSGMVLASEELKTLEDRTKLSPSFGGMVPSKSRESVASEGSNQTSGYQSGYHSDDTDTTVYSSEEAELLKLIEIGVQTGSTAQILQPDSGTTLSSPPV

## COCCOCCOCCOCCOCCOCCOCCOCCOCCNC(=O)c1c(C)[nH]c(/C=C2\C(=O)Nc3ccc(F)cc32)c1C [mPEG9-semaxanib, (Z)-5-((5-fluoro-2-oxoindolin-3-ylidene)methyl)-2,4-dimethyl-1H-pyrrole-3-mPEG8-amide]
[1]
  pIC50: 6.06
  RET Fold: 20.23
[1]; [4]
  RET AVG % Activity at Specific Concentration: 5%
[1]; [5]
  RET AVG % Activity at Specific Concentration: 49%
[1]; [6]
  RET AVG % Activity at Specific Concentration: 90%
[1]; [7]
  RET AVG % Activity at Specific Concentration: 105%
[1]; [8]
  RET AVG % Activity at Specific Concentration: 104%
[1]; [9]
  RET AVG % Activity at Specific Concentration: 100%
[1]; [10]
  RET AVG % Activity at Specific Concentration: 0%
[1]; [11]
  RET AVG % Activity at Specific Concentration: 21%
[1]; [12]
  RET AVG % Activity at Specific Concentration: 74%
[1]; [13]
  RET AVG % Activity at Specific Concentration: 96%
[1]; [14]
  RET AVG % Activity at Specific Concentration: 101%
[1]; [15]
  RET AVG % Activity at Specific Concentration: 97%
[2]
  pIC50: 6.52
  VEGFR-2 Fold: 6.12
[2]; [4]
  VEGFR-2 AVG % Activity at Specific Concentration: 1%
[2]; [5]
  VEGFR-2 AVG % Activity at Specific Concentration: 20%
[2]; [6]
  VEGFR-2 AVG % Activity at Specific Concentration: 61%
[2]; [7]
  VEGFR-2 AVG % Activity at Specific Concentration: 77%
[2]; [8]
  VEGFR-2 AVG % Activity at Specific Concentration: 84%
[2]; [9]
  VEGFR-2 AVG % Activity at Specific Concentration: 89%
[2]; [10]
  VEGFR-2 AVG % Activity at Specific Concentration: −1%
[2]; [11]
  VEGFR-2 AVG % Activity at Specific Concentration: 8%
[2]; [12]
  VEGFR-2 AVG % Activity at Specific Concentration: 46%
[2]; [13]
  VEGFR-2 AVG % Activity at Specific Concentration: 71%
[2]; [14]
  VEGFR-2 AVG % Activity at Specific Concentration: 84%
[2]; [15]
  VEGFR-2 AVG % Activity at Specific Concentration: 84%
[3]
  pIC50: 6.41
  c-Kit Fold: 5.30
[3]; [4]
  c-Kit AVG % Activity at Specific Concentration: 0%
[3]; [5]
  c-Kit AVG % Activity at Specific Concentration: 16%
[3]; [6]
  c-Kit AVG % Activity at Specific Concentration: 90%
[3]; [7]
  c-Kit AVG % Activity at Specific Concentration: 102%
[3]; [8]
  c-Kit AVG % Activity at Specific Concentration: 105%
[3]; [9]
  c-Kit AVG % Activity at Specific Concentration: 95%
[3]; [10]
  c-Kit AVG % Activity at Specific Concentration: −1%
[3]; [11]
  c-Kit AVG % Activity at Specific Concentration: 2%
[3]; [12]
  c-Kit AVG % Activity at Specific Concentration: 60%
[3]; [13]
  c-Kit AVG % Activity at Specific Concentration: 100%
[3]; [14]
  c-Kit AVG % Activity at Specific Concentration: 105%
[3]; [15]
  c-Kit AVG % Activity at Specific Concentration: 102%

## COCCOCCOCCOCCOCCOCCOCCNC(=O)c1c(C)[nH]c(/C=C2\C(=O)Nc3ccc(F)cc32)c1C [mPEG7-semaxanib, (Z)-5-((5-fluoro-2-oxoindolin-3-ylidene)methyl)-2,4-dimethyl-1H-pyrrole-3-mPEG7-amide]
[1]
  pIC50: 6.21
  RET Fold: 14.42
[1]; [4]
  RET AVG % Activity at Specific Concentration: 2%
[1]; [5]
  RET AVG % Activity at Specific Concentration: 38%
[1]; [6]
  RET AVG % Activity at Specific Concentration: 85%
[1]; [7]
  RET AVG % Activity at Specific Concentration: 98%
[1]; [8]
  RET AVG % Activity at Specific Concentration: 99%
[1]; [9]
  RET AVG % Activity at Specific Concentration: 98%
[1]; [10]
  RET AVG % Activity at Specific Concentration: 0%
[1]; [11]
  RET AVG % Activity at Specific Concentration: 14%
[1]; [12]
  RET AVG % Activity at Specific Concentration: 68%
[1]; [13]
  RET AVG % Activity at Specific Concentration: 93%
[1]; [14]
  RET AVG % Activity at Specific Concentration: 99%
[1]; [15]
  RET AVG % Activity at Specific Concentration: 98%
[2]
  pIC50: 6.51
  VEGFR-2 Fold: 6.33
[2]; [4]
  VEGFR-2 AVG % Activity at Specific Concentration: −3%
[2]; [5]
  VEGFR-2 AVG % Activity at Specific Concentration: 19%
[2]; [6]
  VEGFR-2 AVG % Activity at Specific Concentration: 80%
[2]; [7]
  VEGFR-2 AVG % Activity at Specific Concentration: 95%
[2]; [8]
  VEGFR-2 AVG % Activity at Specific Concentration: 95%
[2]; [9]
  VEGFR-2 AVG % Activity at Specific Concentration: 98%
[2]; [10]
  VEGFR-2 AVG % Activity at Specific Concentration: −6%
[2]; [11]
  VEGFR-2 AVG % Activity at Specific Concentration: 0%
[2]; [12]
  VEGFR-2 AVG % Activity at Specific Concentration: 46%
[2]; [13]
  VEGFR-2 AVG % Activity at Specific Concentration: 90%
[2]; [14]
  VEGFR-2 AVG % Activity at Specific Concentration: 93%
[2]; [15]
  VEGFR-2 AVG % Activity at Specific Concentration: 94%
[3]
  pIC50: 6.49
  c-Kit Fold: 4.30
[3]; [4]
  c-Kit AVG % Activity at Specific Concentration: −1%
[3]; [5]
  c-Kit AVG % Activity at Specific Concentration: 11%
[3]; [6]
  c-Kit AVG % Activity at Specific Concentration: 82%
[3]; [7]
  c-Kit AVG % Activity at Specific Concentration: 96%
[3]; [8]
  c-Kit AVG % Activity at Specific Concentration: 97%
[3]; [9]
  c-Kit AVG % Activity at Specific Concentration: 97%
[3]; [10]
  c-Kit AVG % Activity at Specific Concentration: −1%
[3]; [11]
  c-Kit AVG % Activity at Specific Concentration: 1%
[3]; [12]
  c-Kit AVG % Activity at Specific Concentration: 49%
[3]; [13]
  c-Kit AVG % Activity at Specific Concentration: 96%
[3]; [14]
  c-Kit AVG % Activity at Specific Concentration: 98%
[3]; [15]
  c-Kit AVG % Activity at Specific Concentration: 96%
